Consider 2 compounds from publication PMC6222789, “CF3-Substituted Mollugin 2-(4-Morpholinyl)-ethyl ester as a Potential Anti-inflammatory Agent with Improved Aqueous Solubility and Metabolic Stability” (Molecules : A Journal of Synthetic Chemistry and Natural …, 2018).

Where only a bound is given, the exact number is not on record here.

As usually defined, the inhibition is the drop in the measured response relative to a control, in per cent.

Data set [1] is described as follows: Metabolic stability, human liver microsomes. The class given is in vitro ADME. The conditions noted are these: 1 μM. The procedure: Pooled human liver microsomes (150 donor) and dog, rat, mouse liver microsomes were obtained from BD Gentest Co. (Woburn, MA, USA). NADPH regeneration system was obtained from Promega. S-Mephenytoin, 4-hydroxymephenytoin, and 1’-hydroxymidazolam were purchased from Ultrafine Chemical Co. (Manchester, UK). All other chemicals and solvents were of the highest grade available. The metabolic stability assay was performed by incubation of human or selected animal liver microsomes (most often dog, rat and mouse), at 37 °C with a test compound at a final concentration of 1 μM, in the presence of 0.5 mg/mL microsomal protein and NADPH regeneration system, in a total volume of 100 μL of 100 mM phosphate buffer, pH 7.4. The incubation was started by the addition of NADPH regeneration system and terminated with 40 μL of ice-cold acetonitrile at 0 and 30 min. Precipitated proteins were removed by centrifugation at 10,000× g for 5 min at 4 °C. Aliquots of the supernatant were injected onto an LC-MS/MS system. Incubations terminated prior to the addition of NADPH regeneration system (time point 0 min) were used as standards, defined as 100%. Percent of the parent compound remaining was calculated by comparing peak area.

A short description of data set [2]: Plasma stability, rat plasma. It is filed as in vitro ADME. The conditions noted are these: 2 h, 37 °C, 1 μM. How it is done:
The plasma stability assay was performed by incubation of human or rat plasma with a test compound in a final concentration of 1 μM for 120 min at 37 °C. The incubation was terminated by addition of 40 μL of ice-cold acetonitrile and vortexing for 5 min. The precipitated proteins were removed by centrifugation at 14,000× g for 5 min at 4 °C. Aliquots of the supernatant were injected onto a Shimadzu Nexera XR LC system. Percentages of the parent compound remaining were calculated by comparing peak areas using the Xcalibur software (version 1.6.1, Waltham, MA, USA).

The target of a further data set is T1, CYP1A2 (Homo sapiens, UniProt P05177).
T1 construct: from tissue; host or cells: human liver microsomes
T1 sequence (P05177 1-516): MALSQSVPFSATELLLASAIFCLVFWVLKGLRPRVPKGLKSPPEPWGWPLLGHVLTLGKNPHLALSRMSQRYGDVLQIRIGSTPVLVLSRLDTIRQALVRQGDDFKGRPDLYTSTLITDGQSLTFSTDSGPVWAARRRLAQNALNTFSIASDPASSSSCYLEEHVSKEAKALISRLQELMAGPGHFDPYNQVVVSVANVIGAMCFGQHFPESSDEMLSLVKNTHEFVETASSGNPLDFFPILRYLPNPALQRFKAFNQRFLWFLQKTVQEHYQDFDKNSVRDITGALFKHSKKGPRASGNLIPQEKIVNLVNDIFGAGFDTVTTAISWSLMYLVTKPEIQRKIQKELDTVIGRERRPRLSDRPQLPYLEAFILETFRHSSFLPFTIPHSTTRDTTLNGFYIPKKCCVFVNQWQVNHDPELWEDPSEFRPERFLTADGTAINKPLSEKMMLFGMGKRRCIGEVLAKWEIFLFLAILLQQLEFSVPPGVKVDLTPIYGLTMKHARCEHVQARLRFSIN
Put plainly: CYP inhibition assay, CYP1A2. The class given is in vitro ADME. The conditions noted are these: for CYP Inhibition (% of Control) 1A2: 10 μM, CYP activity in presence of inhibitor as % of control, human liver microsomes. The procedure:
All incubations were performed in duplicate, and the mean values were used for analysis. The assays of phenacetin O-deethylase, tolbutamide 4-hydroxylase, S-mephenytoin 4-hydroxylase, dextromethorphan O-demethylase and midazolam 1′-hydroxylase activities were determined as probe activities for CYP1A2, CYP2C9, CYP2C19, CYP2D6 and CYP3A, respectively, using cocktail incubation and tandem mass spectrometry. Briefly, incubation reaction was performed with 0.25 mg/mL human liver microsomes in a final incubation volume of 100 μL. The incubation medium contained 100 mM phosphate buffer (pH 7.4) with probe substrates. The incubation mixture containing various inhibitors (10 μM) was pre-incubated for 5 min. After pre-incubation, an NADPH regenerating system was added. After incubation at 37 °C for 15 min, the reaction was stopped by placing the incubation tubes on ice and adding 40 μL of ice-cold acetonitrile. The incubation mixtures were then centrifuged at 10,000× g for 5 min at 4 °C. Aliquots of the supernatant were injected onto an LC-MS/MS system. The CYP-mediated activities in the presence of inhibitors were expressed as percentages of the corresponding control values.

The next data set concerns Serum Amyloid A (SAA). The data set is described as follows: Serum SAA level in DSS-induced colitis mouse model (ELISA). The conditions noted are these: for serum SAA level (mSS assay): 4% DSS-induced mouse model, compound 10 μM, ELISA; for effect on serum SAA level: murine model of DSS-induced colitis. It is filed as in vivo. The procedure:
The level of Serum Amyloid A (SAA) was measured using a mouse SAA ELISA kit according to the manufacturer’s instructions (E-90SAA, Immunology Consultants Laboratory, Inc., Portland, OR, USA). All samples were assayed in duplicate. The concentrations of SAA were determined by comparison to serial dilutions of purified SAA calibrator.
Figure 2 Analysis of mouse serum amyloid A (SAA) level. Effect of 6d on the level of SAA in the 4% dextran sulfate sodium (DSS)-induced mouse model. The level of SAA in serum was determined by ELISA. The control mice received water + vehicle (water), and the treated groups received 4% DSS + vehicle or DSS with mesalazine (20 mM), 6d (10 μM), or 15c (10 μM). TEXT PRINTED IN THE PICTURE: vehecle: mSS assay (ng/ml): 252.08 | vehecle: mSS assay (ng/ml): 732.93 (4% DSS) | 2: mSS assay (ng/ml): 788.86 (4% DSS) | 6d: mSS assay (ng/ml): 295.77 (4% DSS) | 15c: mSS assay (ng/ml): 300.95 (4% DSS)
For orientation: In an ELISA, binding on a coated surface is turned into a signal by an enzyme label.

With `CC1(C)C=Cc2c(C(=O)OCCN3CCOCC3)c(O)c3ccccc3c2O1` [6d, 2-Morpholinoethyl 6-hydroxy-2,2-dimethyl-2H-benzo[h]chromene-5-carboxylate], in data set [1], the “Metabolic Stability (% Remain, 30 min) Human” value stood at 83 % Remain. The “Plasma Stability (% Remain, 2 h) Rat” value in data set [2] turned out to be 97 % Remain. For the same compound, the “CYP Inhibition (% of Control) 1A2” value on CYP1A2 is reported as 58 % of Control. In the data set with Serum Amyloid A (SAA), the “serum SAA level (mSS assay)” value turned out to be 295.77 ng/mL and the “effect on serum SAA level” value is “reduces serum SAA level”.

With `CC1(C)C=Cc2c(C(=O)OCCN3CCOCC3)c(O)c3cc(C(F)(F)F)ccc3c2O1` [15c, 2-Morpholinoethyl 6-hydroxy-2,2-dimethyl-8-(trifluoromethyl)-2H-benzo[h]chromene-5-carboxylate], the “Metabolic Stability (% Remain, 30 min) Human” value in data set [1] was determined as 84 % Remain. Moreover, the “Plasma Stability (% Remain, 2 h) Rat” value in data set [2] was determined as 51 % Remain. The “CYP Inhibition (% of Control) 1A2” value on CYP1A2 was 57 % of Control. Further, at CYP1A2 (human, liver microsomes, pH 7.4, probe phenacetin (O-deethylation), at 10 μM drug concentration, read-out: % inhibition of CYP 1A2), the inhibition at 15 min, 10 μM was less than 50%. Besides, in the data set on Serum Amyloid A (SAA), the “serum SAA level (mSS assay)” value came to 300.95 ng/mL and the “effect on serum SAA level” value is given as “reduces serum SAA level”.
